Measured values as given in US6620828B2, “Thiazole compounds and pharmaceutical compositions for inhibiting protein kinases and methods for their use” (Agouron Pharmaceuticals, Inc., priority 1999, dated 2003).
Values joined by “and” are separate entries in the source; they are usually repeats but may differ in a detail not shown here. Equal entries are not always repeated. Structures can show the parent of a compound that is named as a salt.

Tests used:
CHK1 = target: T1, CHK1 (Homo sapiens, UniProt O14757); assay: CHK1 high-throughput screening; format: biochemical; conditions: Table 4, repeated entries per example, 20 µM
T1 sequence (O14757 1-476): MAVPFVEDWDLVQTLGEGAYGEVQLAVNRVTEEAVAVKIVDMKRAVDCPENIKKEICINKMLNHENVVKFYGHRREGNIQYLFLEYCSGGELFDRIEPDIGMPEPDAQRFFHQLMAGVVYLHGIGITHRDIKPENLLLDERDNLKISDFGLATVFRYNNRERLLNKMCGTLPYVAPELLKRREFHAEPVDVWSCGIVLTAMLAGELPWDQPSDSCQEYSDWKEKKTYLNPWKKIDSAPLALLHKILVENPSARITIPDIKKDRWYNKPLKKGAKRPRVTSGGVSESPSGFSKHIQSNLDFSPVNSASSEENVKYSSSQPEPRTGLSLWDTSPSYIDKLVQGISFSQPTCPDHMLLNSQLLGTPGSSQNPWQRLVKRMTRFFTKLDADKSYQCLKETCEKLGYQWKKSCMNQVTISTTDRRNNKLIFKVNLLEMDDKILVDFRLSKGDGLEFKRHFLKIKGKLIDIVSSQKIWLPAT

FAKcd409 = target: T2, FAKcd409 (Homo sapiens, UniProt Q05397, P410T); assay: FAK HTS assay; format: biochemical; conditions: 10 uM compound, HTS Delphia assay
T2 construct: comprises residues methionine 409 to glutamate 689; made in house; host or cells: baculovirus vector expression system
T2 sequence (Q05397 409-689 P410T): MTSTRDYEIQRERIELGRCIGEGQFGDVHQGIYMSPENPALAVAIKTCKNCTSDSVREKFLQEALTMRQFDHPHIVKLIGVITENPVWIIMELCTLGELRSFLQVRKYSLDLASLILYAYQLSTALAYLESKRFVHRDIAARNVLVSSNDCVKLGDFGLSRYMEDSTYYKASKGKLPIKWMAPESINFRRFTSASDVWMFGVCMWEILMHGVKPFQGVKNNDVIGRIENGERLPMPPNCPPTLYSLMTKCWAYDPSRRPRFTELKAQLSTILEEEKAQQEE

CDK2/Cyclin A complex = CDK2/Cyclin A complex (Homo sapiens, UniProt P24941); assay: CDK2/Cyclin A assay; format: biochemical; conditions: Table 2
Procedure, shortened: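 Radiometric assay: 150 nM CDK2/cyclin A (insect-cell CDK2, truncated cyclin A) phosphorylates His-tagged Rb fragment (residues 386-928) with 25 μM ATP plus [32P]ATP, pH 7.4 HEPES, 2% DMSO, 30 °C for 20 min. Filter-captured product counted by phosphorimager; apparent Ki from competitive or tight-binding inhibition fits.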

CDK4/Cyclin D3 complex = target: T3, CDK4/Cyclin D3 complex (Homo sapiens, UniProt P11802); assay: CDK4/Cyclin D assay; format: biochemical; conditions: Table 2
T3 construct: made in house; host or cells: insect cells co-infected with baculovirus vectors
T3 sequence (P11802 whole entry): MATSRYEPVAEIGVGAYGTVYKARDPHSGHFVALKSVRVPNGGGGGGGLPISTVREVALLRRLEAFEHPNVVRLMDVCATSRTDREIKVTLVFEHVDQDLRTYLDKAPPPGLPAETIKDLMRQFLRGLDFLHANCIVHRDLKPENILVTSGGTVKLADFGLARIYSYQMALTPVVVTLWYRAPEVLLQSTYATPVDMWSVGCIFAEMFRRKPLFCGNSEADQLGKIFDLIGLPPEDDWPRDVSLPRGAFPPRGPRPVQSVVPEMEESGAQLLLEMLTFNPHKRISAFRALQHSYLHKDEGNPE
T3 sequence (P30281 whole entry partner): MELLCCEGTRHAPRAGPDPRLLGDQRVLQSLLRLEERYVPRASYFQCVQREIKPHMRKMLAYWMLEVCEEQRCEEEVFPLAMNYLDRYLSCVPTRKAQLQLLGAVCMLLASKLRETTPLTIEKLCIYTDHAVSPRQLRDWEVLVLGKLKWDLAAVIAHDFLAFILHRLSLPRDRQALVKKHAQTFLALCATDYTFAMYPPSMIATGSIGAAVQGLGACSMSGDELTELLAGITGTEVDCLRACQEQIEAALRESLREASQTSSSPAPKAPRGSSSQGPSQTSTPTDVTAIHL
Procedure, shortened: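 Insect-cell-expressed CDK4/cyclin D3 (50 nM) phosphorylating His-tagged Rb fragment (residues 386-928) with 25 μM [^32P]ATP in HEPES pH 7.4, MgCl2, 2% DMSO; 20 min at 30 °C, EDTA stop. Filter-captured 32P by phosphorimager; apparent Ki from competitive or tight-binding inhibition fits.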

FGF-R1 = target: T4, FGF-R1 (Homo sapiens, UniProt P11362, C488A/C584S/L457V); assay: FGF-R spectrophotometric assay; format: biochemical; conditions: Table 3; % inh @ 1 uM; read-out: FGF-P Ki (nM) (% inh @ 1 uM)
T4 construct: starting from the endogenous methionine residue 456 to glutamate 766; made in house; host or cells: baculovirus vector expression system
T4 sequence (P11362 456-766 L457V/C488A/C584S): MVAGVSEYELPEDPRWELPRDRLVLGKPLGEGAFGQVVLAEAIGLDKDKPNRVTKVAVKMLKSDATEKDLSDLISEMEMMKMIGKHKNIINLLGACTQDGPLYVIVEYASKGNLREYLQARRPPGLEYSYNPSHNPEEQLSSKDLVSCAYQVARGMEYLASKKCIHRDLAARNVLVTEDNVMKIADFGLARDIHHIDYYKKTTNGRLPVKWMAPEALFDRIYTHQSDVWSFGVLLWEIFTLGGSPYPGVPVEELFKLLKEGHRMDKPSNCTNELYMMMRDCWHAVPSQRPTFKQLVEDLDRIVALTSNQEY
Description: FGF-R1 Construct for Assay: The intracellular kinase domain of human FGF-R1 was expressed using the baculovirus vector expression system starting from the endogenous methionine residue 456 to glutamate 766, according to the residue numbering system of Mohammadi et al., Mol. Cell. Biol., 16, 977-989 (1996). In addition, the construct also has the following 3 amino acid substitutions: L457V, C488A, and C584S.
The spectrophotometric assay was carried out as described above for VEGF-R2, except for the following changes in concentration: FGF-R=50 nM, ATP=2 mM, and poly(E4Y1)=15 mM.

[1] = system: lung cancer cells (line MV522); assay: Cancer cell proliferation (MV522) assay; format: cell-based; conditions: MV522, Table 3
LCK tyrosine kinase = target: T5, LCK tyrosine kinase (Homo sapiens, UniProt P06239, C224D/P223M); assay: LCK spectrophotometric assay; format: biochemical; conditions: Table 3, read-out: LCK (% inh @ 1 uM)
T5 construct: starting from amino acid residue 223 to the end of the protein at residue 509; made in house; host or cells: insect cells
T5 sequence (P06239 223-509 P223M/C224D): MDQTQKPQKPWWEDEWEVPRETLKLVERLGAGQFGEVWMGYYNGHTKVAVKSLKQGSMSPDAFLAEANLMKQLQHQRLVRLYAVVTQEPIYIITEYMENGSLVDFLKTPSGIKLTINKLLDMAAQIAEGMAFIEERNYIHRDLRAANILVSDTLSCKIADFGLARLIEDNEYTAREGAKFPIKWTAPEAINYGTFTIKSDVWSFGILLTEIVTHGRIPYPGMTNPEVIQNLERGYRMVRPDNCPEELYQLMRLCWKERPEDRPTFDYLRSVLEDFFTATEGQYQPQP

[2] = target: T6, unphosphorylated VEGF-R2Δ50 (FLVK) (Homo sapiens, UniProt P35968, DEL940-989/E990V); assay: VEGF-R2 coupled spectrophotometric assay, unphosphorylated enzyme (FLVK); format: biochemical; conditions: Table 3; some entries 'Slow binder'
T6 construct: VEGF-R2Δ50 contains residues 806-939 and 990-1171; made in house; host or cells: baculovirus/insect cells
T6 sequence (P35968 with tags, fused parts or gaps DEL940-989/E990V limits assumed): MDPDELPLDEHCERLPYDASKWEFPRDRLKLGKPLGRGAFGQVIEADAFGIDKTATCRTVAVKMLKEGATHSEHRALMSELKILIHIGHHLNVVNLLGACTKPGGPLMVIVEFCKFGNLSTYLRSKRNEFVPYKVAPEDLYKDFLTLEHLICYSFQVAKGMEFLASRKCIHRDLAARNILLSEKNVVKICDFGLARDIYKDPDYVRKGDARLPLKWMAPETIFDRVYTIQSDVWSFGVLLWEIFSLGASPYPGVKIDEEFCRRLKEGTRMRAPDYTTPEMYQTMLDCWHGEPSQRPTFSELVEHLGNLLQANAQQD
Procedure, shortened: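 Unphosphorylated VEGF-R2Δ50 (5 to 40 nM) with 20 mM poly(E4Y1), 3 mM ATP, 60 mM MgCl2, 2 mM MnCl2 in 200 mM Hepes pH 7.5. ADP production coupled via PK/LDH to NADH oxidation, read at 340 nm. Ki from activity at varying compound concentrations.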

[3] = system: human umbilical vein endothelial cells (HUVEC); assay: HUVEC proliferation assay; format: cell-based; conditions: Homo sapiens, HUVEC, Table 3
Procedure, shortened: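 Exponentially growing HUVEC were serum-starved 24 h (F12K + 1% FBS), pre-treated 1 h with compound (0.1% DMSO final), then stimulated with 6 ng/ml VEGF. Proliferation was read 72 h later by MTT reduction (A595). IC50 came from seven 0.5-log concentrations in triplicate; screens gave % inhibition relative to VEGF-only and starved wells.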

[4] = target: T7, phosphorylated VEGF-R2Δ50 (FLVK-P) (Homo sapiens, UniProt P35968, DEL940-989/E990V); assay: VEGF-R2 coupled spectrophotometric (FLVK-P) assay; format: biochemical; conditions: Table 3; at 50 nM
T7 construct: VEGF-R2Δ50 contains residues 806-939 and 990-1171; made in house; host or cells: baculovirus/insect cells
T7 sequence (P35968 with tags, fused parts or gaps DEL940-989/E990V limits assumed): as above
Procedure, shortened: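 Baculovirus-expressed human VEGF-R2Δ50 (residues 806-939/990-1171, E990V) was autophosphorylated with 3 mM ATP, 40 mM MgCl2 for 2 h at 4° C. ADP formation was coupled via PK/LDH to NADH oxidation, read at 340 nm, with 5.1 mM poly(E4Y1), 1 mM ATP, 25 mM MgCl2, Hepes pH 7.5. Ki came from activity across compound concentrations.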

| SMILES | % inhibition @ 20 μM (CHK1) | % inhibition of FAK (FAKcd409; 10 µM) | Ki (CDK2/Cyclin A complex) [nM] | inhibition at 10 µM (FAKcd409) [%] | Ki (CDK4/Cyclin D3 complex) [nM] | inhibition at 1 µM (FGF-R1) [%] | IC50 [1] [nM] | inhibition at 1 µM (LCK tyrosine kinase) [%] | Ki [2] [nM] | IC50 [3] [nM] | inhibition at 0.05 µM [4] [%] |
| --- | --- | --- | --- | --- | --- | --- | --- | --- | --- | --- | --- |
| COc1cc(Nc2nc(N)c(-c3nc(-c4cccc(C(=O)Nc5ccc(C(C)C)c(C)c5)c4)cs3)s2)cc(OC)c1OC [A(34), 3-[4′-Amino-2′-(3,4,5-trimethoxy-phenylamino)-[2,5′]bithiazolyl-4-yl]-N-(4-isopropyl-3-methyl-phenyl)-benzamide] | 4.6% and −3.4% | −3% and −8% and −13% |  |  |  |  |  |  |  |  |  |
| CCOC(=O)c1csc(-c2sc(Nc3ccc(S(N)(=O)=O)cc3)nc2N)n1 [A(68), Ethyl 4′-amino-2′-(4-sulfamoyl-phenylamino)-[2,5′]bithiazolyl-4-carboxylate] |  |  | 130 | -18 | 4500 |  |  |  |  |  |  |
| COc1cc(Nc2nc(N)c(-c3nc(-c4cc(NC(=O)OC(C)(C)C)ccc4Cl)no3)s2)cc(OC)c1OC [B(12), (3-{5-[4-Amino-2-(3,4,5-trimethoxy-phenylamino)-thiazol-5-yl]-[1,2,4]oxadiazoyl}-4-chloro-phenyl)-carbamic acid tert-butyl ester] |  |  |  |  |  | 52 | 3600 | 29 | 1.6 | 15 |  |
| COc1cc(Nc2nc(N)c(-c3nc(-c4cc(NC(=O)OC(C)(C)C)c(F)cc4Cl)no3)s2)cc(OC)c1OC [B(14), (5-{5-[4-Amino-2-(3,4,5-trimethoxy-phenylamino)-thiazol-5-yl]-[1,2,4]oxadiazol-3-yl}-4-chloro-2-fluoro-phenyl)-carbamic acid tert-butyl ester] |  |  |  |  |  | 46 | > 10000 | 10 | 0.76 | 11 | 13 |
| COc1cccc(C(=O)Nc2cc(-c3noc(-c4sc(Nc5ccc(N6CCOCC6)nc5)nc4N)n3)c(F)cc2F)c1 [B(18), N-(5-{5-[4-Amino-2-(6-morpholin-4-yl-pyridin-3-ylamino)-thiazol-5-yl]-[1,2,4]oxadiazol-3-yl}-2,4-difluoro-phenyl)-3-methoxy-benzamide] |  |  |  |  |  | 8 | 1900 | < 0 | 0.9 | 10 |  |
| COc1cc(Nc2nc(N)c(-c3nc(-c4cccc(NC(=O)c5cc(C)c(O)c(C)c5)c4)cs3)s2)cc(OC)c1OC [D(58), N-{3-[4′-Amino-2′-(3,4,5-trimethoxy-phenylamino)-[2,5′]bithiazolyl-4-yl]-phenyl}-4-hydroxy-3,5-dimethyl-benzamide] |  |  |  |  |  | 23 | > 10000 | 29 | 1.4 | > 100 |  |
| COc1cc(Nc2nc(N)c(-c3nc(-c4cccc(NC(=O)CC5CC6CCC5C6)c4)cs3)s2)cc(OC)c1OC (centres unmarked) [D(59), N-{3-[4′-Amino-2′-(3,4,5-trimethoxy-phenylamino)-[2,5′]bithiazolyl-4-yl]-phenyl}-2-bicyclo[2.2.1]hept-2-yl-acetamide] |  |  |  |  |  | 54 | 3100 | 44 | 2.8 | > 100 |  |
| COc1cc(Nc2nc(N)c(-c3nc(-c4cc(NC(=O)c5cccc(Cl)c5)c(F)cc4F)no3)s2)cc(OC)c1OC [D(66), N-(5-{5-[4-Amino-2-(3,4,5-trimethoxy-phenylamino)-thiazol-5-yl]-[1,2,4]oxadiazol-3-yl}-2,4-difluoro-phenyl)-3-chloro-benzamide] |  |  |  |  |  | 55 | > 10000 | 15 | 1 | 4.2 |  |
| COc1cccc(C(=O)Nc2cc(-c3noc(-c4sc(Nc5cc(OC)c(OC)c(OC)c5)nc4N)n3)c(F)cc2F)c1 [D(67), N-(5-{5-[4-Amino-2-(3,4,5-trimethoxy-pheny-1-amino)-thiazol-5-yl]-[1,2,4]oxadiazol-3-yl}-2,4-difluoro-phenyl)-3-methoxy-benzamide] |  |  |  |  |  | 13 | > 10000 | 1 |  | 4.1 |  |
| COc1cc(Nc2nc(N)c(-c3nc(-c4cc(NC(=O)c5cccc(Cl)c5)c(F)cc4Cl)no3)s2)cc(OC)c1OC [D(69), N-(5-{5-[4-Amino-2-(3,4,5-trimethoxy-phenylamino)-thiazol-5-yl]-[1,2,4]oxadiazol-3-yl}-4-chloro-2-fluoro-phenyl)-3-chloro-benzamide] |  |  |  |  |  | 78 | 2300 | 79 | 0.5 | 15 |  |
| COc1cccc(C(=O)Nc2cc(-c3noc(-c4sc(Nc5cc(OC)c(OC)c(OC)c5)nc4N)n3)c(Cl)cc2F)c1 [D(70), N-(5-{5-[4-Amino-2-(3,4,5-trimethoxy-phenylamino)-thiazol-5-yl]-[1,2,4]oxadiazol-3-yl}-4-chloro-2-fluoro-phenyl)-3-methoxy-benzamide TFA salt] |  |  |  |  |  | 59 | > 10000 | 61 | 3.5 | 5.4 | 91 |
| COc1cccc(C(=O)Nc2ccc(F)c(-c3noc(-c4sc(Nc5cc(OC)c(OC)c(OC)c5)nc4N)n3)c2)c1 [D(72), 3-[2-fluoro-5-[(3-methoxybenzoyl)amino]-phenyl]-5-[2-[(3,4,5-trimethoxyphenyl)amino]-4-amino-5-thiazolyl]-1,2,4-oxadiazole] |  |  |  |  |  | 49 | > 10000 | 35 | 0.9 | 4.7 |  |
| COc1cc(Nc2nc(N)c(-c3nc(-c4cc(NC(=O)c5cccc(Cl)c5)ccc4F)no3)s2)cc(OC)c1OC [D(73)] |  |  |  |  |  | 56 | 4450 | 41 | 1.2 | 6 |  |
| CNC(=O)Nc1nc(N)c(-c2nc(-c3cccc(NC(=O)c4cccc(OC)c4)c3)cs2)s1 [F(11), N-{3-[4′-Amino-2′-(3-methyl-ureido)-[2,5′]bithiazolyl-4-yl]-phenyl}-3-methoxy-benzamide] |  |  |  |  |  | 25 | 9600 | 15 | 0.26 | 12 |  |
| Cc1cccc(C(=O)Nc2cccc(-c3noc(-c4sc(NC(=O)NCCCN5CCOCC5)nc4N)n3)c2)c1 [O(12), N-[3-(5-{4-Amino-2-[3-(3-morpholin-4-yl-propyl)-ureido]-thiazol-5-yl}-[1,2,4]oxadiazol-3-yl)-phenyl]-3-methyl-benzamide] |  |  |  |  |  | 33 | 44000 | 21 | 0.19 | 45 |  |
